Assay results published in BindingDB's records for doi:10.1016/0028-3908(96)84644-2 (Abbott Laboratories, 1996).
Where “and” joins values, the source holds several entries; their conditions need not be identical. Identical values can stand only once.

Key:
[1] = biological target: Beta-2 adrenergic receptor (Mus musculus, UniProt P18762)
[2] = biological target: Adenosine receptor A1 (Homo sapiens, UniProt P30542)
[3] = biological target: Chloride channel protein 1 (Homo sapiens, UniProt P35523)
Chloride channel protein 1, sequence (P35523 whole entry): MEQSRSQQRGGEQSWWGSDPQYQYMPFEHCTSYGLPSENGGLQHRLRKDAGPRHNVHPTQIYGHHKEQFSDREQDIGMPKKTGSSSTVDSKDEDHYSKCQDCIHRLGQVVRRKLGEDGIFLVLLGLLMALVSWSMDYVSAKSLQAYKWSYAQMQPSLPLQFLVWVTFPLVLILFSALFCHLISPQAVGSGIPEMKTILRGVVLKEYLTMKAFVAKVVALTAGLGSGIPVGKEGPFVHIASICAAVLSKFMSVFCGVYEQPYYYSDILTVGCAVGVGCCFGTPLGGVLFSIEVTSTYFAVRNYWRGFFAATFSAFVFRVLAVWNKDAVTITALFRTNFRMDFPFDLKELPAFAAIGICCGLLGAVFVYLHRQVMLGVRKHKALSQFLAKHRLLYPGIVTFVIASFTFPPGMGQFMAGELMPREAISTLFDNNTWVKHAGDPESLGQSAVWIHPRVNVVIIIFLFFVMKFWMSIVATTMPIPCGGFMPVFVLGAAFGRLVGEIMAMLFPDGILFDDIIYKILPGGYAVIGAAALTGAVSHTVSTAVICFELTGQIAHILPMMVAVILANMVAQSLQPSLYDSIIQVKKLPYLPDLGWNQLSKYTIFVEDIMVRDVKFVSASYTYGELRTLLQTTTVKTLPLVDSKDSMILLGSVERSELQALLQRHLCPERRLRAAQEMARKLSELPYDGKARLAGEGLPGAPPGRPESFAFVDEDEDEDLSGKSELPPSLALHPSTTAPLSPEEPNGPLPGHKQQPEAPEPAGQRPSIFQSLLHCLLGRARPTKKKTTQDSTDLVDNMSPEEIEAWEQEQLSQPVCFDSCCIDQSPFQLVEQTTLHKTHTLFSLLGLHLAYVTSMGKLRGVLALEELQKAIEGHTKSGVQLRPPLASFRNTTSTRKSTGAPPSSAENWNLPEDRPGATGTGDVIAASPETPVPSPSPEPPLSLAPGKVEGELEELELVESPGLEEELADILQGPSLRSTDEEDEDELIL

[4] = biological target: Glutamate receptor ionotropic, NMDA 1 (Rattus norvegicus, UniProt P35439)
[5] = biological target: 5-hydroxytryptamine receptor 1A/1B/1D/2C (Homo sapiens, UniProt P08908+P28221+P28222+P28335)
[6] = biological target: Substance-K receptor (Bos taurus, UniProt P05363)
Substance-K receptor, sequence (P05363 whole entry): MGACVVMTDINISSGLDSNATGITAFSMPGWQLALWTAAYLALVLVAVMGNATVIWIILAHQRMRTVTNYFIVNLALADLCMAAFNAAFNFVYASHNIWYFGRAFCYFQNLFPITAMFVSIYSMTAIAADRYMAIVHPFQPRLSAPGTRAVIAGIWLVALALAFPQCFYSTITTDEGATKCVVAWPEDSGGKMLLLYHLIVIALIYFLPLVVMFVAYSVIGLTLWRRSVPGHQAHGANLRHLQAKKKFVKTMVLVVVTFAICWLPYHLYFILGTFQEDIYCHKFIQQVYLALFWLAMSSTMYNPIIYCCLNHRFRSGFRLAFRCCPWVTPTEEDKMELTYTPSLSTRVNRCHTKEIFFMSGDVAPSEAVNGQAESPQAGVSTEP

[7] = biological target: 5-hydroxytryptamine receptor 1B (Canis lupus familiaris, UniProt P79250)
[8] = biological target: Sodium channel protein type 2 subunit alpha (Homo sapiens, UniProt Q99250)
[9] = biological target: Voltage-dependent T-type calcium channel subunit alpha-1H (Homo sapiens, UniProt O95180)
[10] = biological target: Gamma-aminobutyric acid type B receptor subunit 1 (Homo sapiens, UniProt Q9UBS5)
[11] = biological target: 5-hydroxytryptamine receptor 1A (Homo sapiens, UniProt P08908)
[12] = biological target: Glutamate receptor 3 (Homo sapiens, UniProt P42263)
Glutamate receptor 3, sequence (P42263 whole entry): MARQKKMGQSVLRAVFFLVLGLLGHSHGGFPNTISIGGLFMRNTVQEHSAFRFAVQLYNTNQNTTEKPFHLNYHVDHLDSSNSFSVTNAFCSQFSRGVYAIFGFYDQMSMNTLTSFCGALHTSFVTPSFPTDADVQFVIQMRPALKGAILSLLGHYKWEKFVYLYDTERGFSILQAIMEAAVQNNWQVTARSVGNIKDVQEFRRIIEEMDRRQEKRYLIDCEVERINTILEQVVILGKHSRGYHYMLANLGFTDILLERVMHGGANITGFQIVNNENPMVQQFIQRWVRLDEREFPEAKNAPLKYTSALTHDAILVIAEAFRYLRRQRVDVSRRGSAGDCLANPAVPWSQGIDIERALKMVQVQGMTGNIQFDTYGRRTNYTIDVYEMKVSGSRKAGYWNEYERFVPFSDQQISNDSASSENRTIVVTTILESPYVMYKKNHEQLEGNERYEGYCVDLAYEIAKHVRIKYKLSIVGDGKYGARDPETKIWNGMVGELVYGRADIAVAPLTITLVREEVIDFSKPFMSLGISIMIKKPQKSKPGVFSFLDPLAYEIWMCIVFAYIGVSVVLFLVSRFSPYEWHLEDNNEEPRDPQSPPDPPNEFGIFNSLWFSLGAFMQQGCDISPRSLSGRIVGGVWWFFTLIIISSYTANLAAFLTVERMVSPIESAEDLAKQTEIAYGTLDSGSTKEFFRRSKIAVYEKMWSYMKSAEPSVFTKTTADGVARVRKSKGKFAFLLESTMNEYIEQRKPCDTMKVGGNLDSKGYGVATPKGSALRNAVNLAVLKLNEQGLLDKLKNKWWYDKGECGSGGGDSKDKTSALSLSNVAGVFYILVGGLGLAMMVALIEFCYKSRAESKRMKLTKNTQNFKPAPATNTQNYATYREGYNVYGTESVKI

[13] = biological target: Acetylcholine receptor subunit alpha (Rattus norvegicus, UniProt P25108)
Acetylcholine receptor subunit alpha, sequence (P25108 whole entry): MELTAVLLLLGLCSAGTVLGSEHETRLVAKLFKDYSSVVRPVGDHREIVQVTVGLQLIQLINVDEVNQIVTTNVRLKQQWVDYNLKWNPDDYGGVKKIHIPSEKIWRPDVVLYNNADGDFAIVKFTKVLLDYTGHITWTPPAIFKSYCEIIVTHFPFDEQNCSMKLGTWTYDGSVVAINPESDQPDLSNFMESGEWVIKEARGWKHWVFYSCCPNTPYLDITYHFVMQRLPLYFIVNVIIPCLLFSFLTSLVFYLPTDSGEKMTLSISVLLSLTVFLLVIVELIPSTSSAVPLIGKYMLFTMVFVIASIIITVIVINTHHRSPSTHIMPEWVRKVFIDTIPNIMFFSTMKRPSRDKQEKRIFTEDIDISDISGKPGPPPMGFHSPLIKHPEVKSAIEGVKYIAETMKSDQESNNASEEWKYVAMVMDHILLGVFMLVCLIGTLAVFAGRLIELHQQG

[14] = biological target: Delta-type opioid receptor (Homo sapiens, UniProt P41143)
[15] = biological target: Glutamate receptor ionotropic, kainate 2 (Homo sapiens, UniProt Q13002)
[16] = biological target: 5-hydroxytryptamine receptor 2C (Homo sapiens, UniProt P28335)
[17] = biological target: Sodium-dependent dopamine transporter (Homo sapiens, UniProt Q01959)
[18] = biological target: Neuromedin-K receptor (Homo sapiens, UniProt P29371)
Neuromedin-K receptor, sequence (P29371 whole entry): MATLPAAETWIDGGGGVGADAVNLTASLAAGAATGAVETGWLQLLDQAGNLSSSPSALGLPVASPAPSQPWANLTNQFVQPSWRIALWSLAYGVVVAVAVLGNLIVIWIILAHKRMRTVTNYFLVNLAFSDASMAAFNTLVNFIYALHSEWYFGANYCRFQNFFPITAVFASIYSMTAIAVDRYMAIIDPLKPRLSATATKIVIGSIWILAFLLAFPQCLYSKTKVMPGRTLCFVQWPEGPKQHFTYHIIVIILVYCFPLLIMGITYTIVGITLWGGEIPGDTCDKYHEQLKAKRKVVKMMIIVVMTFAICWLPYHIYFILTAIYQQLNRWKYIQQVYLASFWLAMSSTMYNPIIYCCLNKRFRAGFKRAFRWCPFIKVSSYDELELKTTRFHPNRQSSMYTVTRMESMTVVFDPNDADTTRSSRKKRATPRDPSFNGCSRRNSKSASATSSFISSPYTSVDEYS

[19] = biological target: Gamma-aminobutyric acid type B receptor subunit 1 (UniProt Q9Z0U4)
[20] = biological target: Adrenergic alpha2 receptor (Mesocricetus auratus, UniProt Q60533)
Adrenergic alpha2 receptor, sequence (Q60533 whole entry): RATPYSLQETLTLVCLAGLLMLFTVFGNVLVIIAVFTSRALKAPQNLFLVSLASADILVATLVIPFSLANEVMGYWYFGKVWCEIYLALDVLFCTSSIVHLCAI

[21] = biological target: Apamin (Apis mellifera, UniProt P01500)
[22] = biological target: Protein kinase C (Drosophila melanogaster, UniProt P13678)
[23] = biological target: Putative choline uptake ABC transporter permease protein (Rhizobium meliloti (strain 1021), UniProt Q92V96)
Putative choline uptake ABC transporter permease protein, sequence (Q92V96 whole entry): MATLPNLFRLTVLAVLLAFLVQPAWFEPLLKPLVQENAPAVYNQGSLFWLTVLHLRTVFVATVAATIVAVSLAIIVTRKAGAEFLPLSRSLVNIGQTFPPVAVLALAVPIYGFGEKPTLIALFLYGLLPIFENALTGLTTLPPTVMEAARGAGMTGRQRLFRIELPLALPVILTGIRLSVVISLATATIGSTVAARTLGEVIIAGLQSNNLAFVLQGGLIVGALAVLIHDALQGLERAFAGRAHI

[24] = biological target: GLRA1 protein (Homo sapiens, UniProt Q14C71)
GLRA1 protein, sequence (Q14C71 whole entry): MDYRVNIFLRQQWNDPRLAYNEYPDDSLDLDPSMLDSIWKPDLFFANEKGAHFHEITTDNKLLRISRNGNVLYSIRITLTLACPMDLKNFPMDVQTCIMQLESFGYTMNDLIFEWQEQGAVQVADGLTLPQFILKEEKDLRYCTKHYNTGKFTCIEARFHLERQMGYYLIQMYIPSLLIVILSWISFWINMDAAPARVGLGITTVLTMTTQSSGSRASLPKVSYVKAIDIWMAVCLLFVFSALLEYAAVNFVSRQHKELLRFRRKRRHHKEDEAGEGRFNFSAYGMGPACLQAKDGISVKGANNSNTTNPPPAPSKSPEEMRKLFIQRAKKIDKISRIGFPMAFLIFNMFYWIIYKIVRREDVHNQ

[25] = biological target: Gamma-aminobutyric acid receptor subunit alpha-1 (Homo sapiens, UniProt P14867)
[26] = biological target: Mu-type opioid receptor (Rattus norvegicus, UniProt P33535)
Mu-type opioid receptor, sequence (P33535 whole entry): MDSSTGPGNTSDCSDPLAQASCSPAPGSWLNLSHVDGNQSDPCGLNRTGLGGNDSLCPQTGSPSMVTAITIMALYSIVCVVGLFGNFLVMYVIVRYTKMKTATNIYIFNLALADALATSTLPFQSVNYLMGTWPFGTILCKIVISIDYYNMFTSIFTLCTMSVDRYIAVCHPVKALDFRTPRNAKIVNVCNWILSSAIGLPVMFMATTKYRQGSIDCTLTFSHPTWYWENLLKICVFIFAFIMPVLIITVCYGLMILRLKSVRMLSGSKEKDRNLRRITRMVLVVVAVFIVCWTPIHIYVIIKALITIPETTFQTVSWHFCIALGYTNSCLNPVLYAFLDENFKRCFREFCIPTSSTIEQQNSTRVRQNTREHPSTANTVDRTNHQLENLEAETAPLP

[27] = biological target: D(2) dopamine receptor (Homo sapiens, UniProt P14416)
[28] = biological target: Neuronal acetylcholine receptor subunit alpha-7 (Homo sapiens, UniProt P36544)
Neuronal acetylcholine receptor subunit alpha-7, sequence (P36544 whole entry): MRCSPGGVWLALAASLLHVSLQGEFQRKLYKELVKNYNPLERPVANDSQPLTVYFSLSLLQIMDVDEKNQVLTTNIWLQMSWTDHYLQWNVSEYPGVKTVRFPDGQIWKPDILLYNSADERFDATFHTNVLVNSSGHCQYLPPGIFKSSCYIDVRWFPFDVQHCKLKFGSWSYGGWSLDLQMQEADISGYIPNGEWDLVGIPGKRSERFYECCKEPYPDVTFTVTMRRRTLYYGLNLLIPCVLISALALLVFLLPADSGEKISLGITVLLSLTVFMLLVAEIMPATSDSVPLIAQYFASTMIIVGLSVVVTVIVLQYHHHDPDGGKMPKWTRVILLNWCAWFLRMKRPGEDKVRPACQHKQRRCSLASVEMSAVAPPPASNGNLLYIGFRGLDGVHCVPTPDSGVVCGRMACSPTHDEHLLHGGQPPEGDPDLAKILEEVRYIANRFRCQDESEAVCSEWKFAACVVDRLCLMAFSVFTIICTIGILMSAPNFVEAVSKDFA

[29] = biological target: Substance-P receptor (Homo sapiens, UniProt P25103)
[30] = biological target: Voltage-dependent N-type calcium channel subunit alpha-1B (Rattus norvegicus, UniProt Q02294)
[31] = biological target: Neuronal acetylcholine receptor subunit alpha-4 (Homo sapiens, UniProt P43681)
[32] = biological target: Solute carrier family 22 member 1 (Rattus norvegicus, UniProt Q63089)
[33] = biological target: Potassium voltage-gated channel subfamily A member 1 (Homo sapiens, UniProt Q09470)
[34] = biological target: ATP-sensitive inward rectifier potassium channel 11 (Homo sapiens, UniProt Q14654)
[35] = biological target: Beta-nerve growth factor (Homo sapiens, UniProt P01138)
Beta-nerve growth factor, sequence (P01138 122-241 limits assumed): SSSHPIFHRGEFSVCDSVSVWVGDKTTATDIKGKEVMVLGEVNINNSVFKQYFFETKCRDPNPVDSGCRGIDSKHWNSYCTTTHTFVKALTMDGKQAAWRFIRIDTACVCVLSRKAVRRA

[36] = biological target: Adenosine receptor A2a (Homo sapiens, UniProt P29274)
[37] = biological target: Somatostatin (Rattus norvegicus, UniProt P60042)
[38] = biological target: Kappa-type opioid receptor (Homo sapiens, UniProt P41145)
[39] = biological target: Sodium-dependent noradrenaline transporter (Homo sapiens, UniProt P23975)

Work on `c1cncc(OC[C@@H]2CCN2)c1` yielded a Ki [1] of over 10 µM, a Ki [2] of over 10 µM and a Ki [3] of over 10 µM. For the same molecule, the Ki [4] was over 10 µM, the Ki [5] was over 10 µM and the Ki [6] was over 10 µM. It also gave a Ki [7] of over 10 µM, a Ki [8] of over 10 µM and a Ki [9] of over 10 µM. It also gave a Ki [10] of over 10 µM, a Ki [11] of over 10 µM and a Ki [12] of over 10 µM. The Ki [13] was 384 nM and 314 nM, the Ki [14] was over 10 µM and the Ki [15] was over 10 µM. The Ki [16] was over 10 µM, the Ki [17] was over 10 µM and the Ki [18] was over 10 µM. It also gave a Ki [19] of over 10 µM, a Ki [20] of over 10 µM and a Ki [21] of over 10 µM. It also gave a Ki [22] of over 10 µM, a Ki [23] of over 10 µM and a Ki [24] of over 10 µM. It also gave a Ki [25] of over 10 µM, a Ki [26] of over 10 µM and a Ki [27] of over 10 µM. The Ki [28] was 1270 nM and 148 nM, the Ki [29] was over 10 µM and the Ki [30] was over 10 µM. It also gave a Ki [31] of 0.04 nM, a Ki [32] of over 10 µM and a Ki [33] of over 10 µM. For the same molecule, the Ki [34] was over 10 µM, the Ki [35] was over 10 µM and the Ki [36] was over 10 µM. For the same molecule, the Ki [37] was over 10 µM, the Ki [38] was over 10 µM and the Ki [39] was over 10 µM.
With `CN1CCC[C@H]1c1cccnc1` [(R,S)-nicotine] the Ki [13] was over 10000 nM.
